# Reference: patent US8574925B2, “Fluorescence analysis method using fluorescent-activating antibodies” (Hamamatsu Photonics K.K., priority 2002, dated 2013)
# Tests used:
# Assay type in all cases: binding, guinea pig
# [1] = tested on: anti-MG-Ins Fab; assay: Calibration curve: insulin concentration vs MG fluorescence intensity with anti-MG-Ins Fab and malachite green; details: 1 μM anti-MG-Ins Fab, 0.4 μM MG, excitation 620 nm, fluorescence 650 nm; FIG. 13
# Protocol: A calibration curve, indicating the relationship between the insulin concentration and fluorescence intensity for a fixed amount (1 μM) of the anti-MG-Ins Fab and a fixed amount (0.4 μM) of MG, was prepared as follows. Since the insulin used forms aggregate of a few molecules because of containing zinc, the insulin was dissolved in advance in PB containing SDS at a final concentration of 0.1% to dissociate the aggregate. The insulin solution thus obtained was thereafter run through a gel permeation column (Fast Desaliting Column HR 10/10, made by Pharnacia), equilibrated using PBS. The insulin solution from which SDS was thus removed was used in the following quantification. • (1) The fluorescence spectrophotometer was set to an excitation wavelength of 620 nm and a fluorescence wavelength of 650 nm and the temperature of the cell holder was maintained at a fixed temperature (25° C.). • (2) 2 ml (A=2 ml) of an antibody-dye solution, containing 1 μM (Y=1 μM) of the anti-MG-Ins Fab and 0.4 μM (Z=0.4 μM) of MG, were prepared (with phosphate buffered saline (pH 7.2, PBS) as the solvent) (S101). • (3) The antibody-dye solution thus obtained was placed in a standard fluorescence measurement cell. This cell was set in the fluorescence spectrophotometer. The solution in the cell was stirred for 30 seconds with a micro stirring bar. […]
# [2] = tested on: anti-MG-Ins Fab; assay: Calibration curve: insulin concentration vs AO fluorescence intensity with anti-MG-Ins Fab and auramine O; details: 2 μM anti-MG-Ins Fab, 0.4 μM AO, excitation 400 nm, fluorescence 520 nm; FIG. 15
# Protocol: A calibration curve was prepared for insulin concentrations in the range of 0 to 7.7 μM in the same manner as described above in [1-10-1] other than the changes of setting the anti-MG-Ins Fab concentration to 2 μM, using 0.4 μM of auramine O in place of 0.4 μM of malachite green, setting the excitation wavelength to 400 nm, and setting the fluorescence wavelength to 520 nm.
# [3] = tested on: anti-MG-Ins Fab; assay: Verification test concerning the reversibility of the antigen-antibody reactions (AO fluorescence)
# Protocol: The following experiment was carried out in order to confirm that, when the free insulin concentration in the same sample is varied by repeating the addition of insulin and the addition of anti-porcine insulin IgG (referred to hereinafter as “anti-insulin IgG”) in a solution containing the anti-MG-Ins Fab and auramine O, the measurement values of this invention vary following the variation of the free insulin concentration, that is, the antigen-antibody reactions concerning this invention are reversible and enable analysis in real time. The measurement of fluorescence intensity was carried out under the same measurement conditions as described above in [2-2-1].
# First, 2 ml of a PBS solution, containing 2 μM of the anti-MG-Ins Fab and 0.4 μM of auramine O, were prepared. The AO fluorescence intensity was measured upon placing the solution in a cell. The florescence intensity at this time was set to a relative value of 1.
# Insulin was then added to the solution in the cell so that the insulin concentration will be 1.26 μM.
# A fixed amount (0.135 μM) of the anti-insulin IgG was then added to this solution. […] The AO fluorescence intensity returned to the original value since the anti-insulin IgG and insulin became bonded and free insulin no longer existed in the solution.
# When insulin was then added again to this solution so that the insulin concentration will be 2.39 μM.
# [4] = tested on: anti-MG-Ins Fab; assay: Fluorescence spectrum of malachite green bound to the anti-MG-Ins Fab; details: Fab 0.955 μM, MG 0.907 μM, PBS pH 7.2, 25° C., excitation 620 nm; FIG. 11
# Protocol: The fluorescence spectrum of MG when MG is bound to the anti-MG-Ins Fab by an antigen-antibody reaction was measured as follows. The anti-MG-Ins Fab and MG were mixed so that the respective concentrations will be 0.955 μM and 0.907 μM (using phosphate buffered saline (pH 7.2, PBS) as the solvent). Then, an antigen-antibody reaction was made to proceed by stirring for five minutes at 25° C. Then using the fluorescence spectrophotometer, the fluorescence spectrum emitted from the above-described mixed solution was measured under the conditions of an excitation wavelength of 620 nm, fluorescence wavelength of 630 to 750 nm, and bandpass width being set to 5 nm at both the excitation and fluorescence sides.
# Fluorescence spectra were also measured in the same manner as the above for various MG concentrations in the range of 0 to 0.9 μM with the anti-MG-Ins Fab concentration being set at 1 μM.
# [5] = tested on: anti-MG-Ins IgG; assay: Fluorescence spectrum of auramine O bound to the anti-MG-Ins IgG; details: IgG 1 μM, AO 1 μM, PBS pH 7.2, 25° C., excitation 400 nm; FIG. 14
# Protocol: The fluorescence spectrum of AO when AO is bound to the anti-MG-Ins IgG by an antigen-antibody reaction was measured as follows. The anti-MG-Ins IgG and AO were mixed so that the respective concentrations will be 1 μM and 1 μM (using phosphate buffered saline (pH 7.2, PBS) as the solvent). An antigen-antibody reaction was made to proceed by stirring for five minutes at 25° C. Then using the fluorescence spectrophotometer, the fluorescence spectrum emitted from the above-described mixed solution was measured under the conditions of an excitation wavelength of 400 nm, fluorescence wavelength of 450 to 650 nm, and bandpass width being set to 5 nm at both the excitation and fluorescence sides.
molecule,measurement,setting,value
insulin,change of malachite green fluorescence intensity with increase of insulin concentration,[1],enhancement of fluorescence occurs
same,change of auramine O fluorescence intensity with increase of insulin concentration,[2],inhibition of fluorescence occurs
same,relative value of the AO fluorescence intensity,[3]; insulin added again to 2.39 μM,decreased again
same,relative value of the AO fluorescence intensity,[3]; insulin added again to 3.37 μM,decreased
same,relative value of the AO fluorescence intensity,"[3]; insulin added to 1.26 μM, 2 μM anti-MG-Ins Fab, 0.4 μM AO, start value 1",approximately 0.97
CN(C)c1ccc(C(=C2C=CC(=[N+](C)C)C=C2)c2ccccc2)cc1 [malachite green],fluorescence upon binding with the anti-MG-Ins Fab,[4],became fluorescent
CN(C)c1ccc(C(=N)c2ccc(N(C)C)cc2)cc1 [auramine O],fluorescence upon binding with the anti-MG-Ins IgG,[5],became fluorescent
